Data reported in patent US11350582B2, “Plant varieties by application of endocides” (Stephen F. Austin State University, priority 2015, dated 2022).

Assays:
Azolla caroliniana = assay: Greenhouse spray test on Carolina mosquito fern; assay type: in vivo; conditions: 0.5% concentration; 10 mL spray; fifth day
Procedure: 4-Hydroxybenzoic and 3,4-dihydroxybenzoic acids were also tested against Carolina mosquito fern (Azolla caroliniana Willd.) (family Azollaceae). Six containers (14×15 cm, 0.68 L) with full cover of A. caroliniana were included in the tests: two without any treatments as controls, two were sprayed with 10 mL 0.5% 4-hydroxybenzoic acid each, and the others were sprayed with 10 mL 0.5% 3,4-dihydroxybenzoic acid each. Plant growth and survival status were documented and photographed in each treatment on the fifth day after the treatment.

S. molesta [1] = assay: Mutation induction in giant salvinia by spray, greenhouse (Example 12); assay type: in vivo, Salvinia molesta
Procedure: General Experimental Procedure: 4-hydroxybenzoic acid (>95%, HPLC analysis) and 3,4-dihydroxybenzoic acid (>95%) were isolated from S. molesta matter by using the method as described in Li, Wang et al. 2013. 4-Hydroxybenzoic and 3,4-dihydroxybenzoic acids were prepared as 50 mL experimental solution with NANOPURE™ water at eight concentrations, 0.015, 0.031, 0.063, 0.125, 0.25, 0.5, 1, and 2%, respectively.
In each of 17 containers (14×15 cm, 0.68 L each), nine healthy and untreated living plants of S. molesta were cultured in tap water in a greenhouse (30° C. during the day time and 20° C. at night). The nine plants included three type I plants (approximately 1 g in fresh weight per plant), three type II plants (approximately 2 g per plant), and three type III plants (approximately 4 g per plant). The plants in each container were sprayed with 10 mL NANOPURE™ water or an experimental compound at various concentrations. Plant growth, morphological variation, and survival status were documented and photographed in each treatment for six weeks after the treatment. Then any new developed plants in each container were transferred into a container with new water for 10 weeks of culture observations.

king protea explants = conditions: MS medium culture, cited from earlier work
taro = conditions: in vivo; cited from earlier work
tobacco = conditions: from root exudates of tobacco; cited from earlier work
S. molesta [2] = assay: Field test in isolated ponds, plots on water surface and soils (Example 17); assay type: in vivo, Salvinia molesta; conditions: 0.5% 4-hydroxybenzoic acid; for % of Living Biomass/Total Biomass (mean ± s.d.), Type I and II Plants on Water Surface / % of Living Biomass/Total Biomass (mean ± s.d.), Type III Plants on Soils: 12 days
Procedure: General Experimental Procedure: The field experiments were conducted in isolated ponds in east Texas, United States. The ponds are small (each were 200-500 m^2 in size) in the hardwood forests and each was fully covered with S. molesta plants and also included least duckweed (L. minuta) and Brazillan watermeal (W. brasillensis). The area was divided by plots, each plot had 50 m^2 in area including approximately 40 m^2 of type I and II S. molesta plants on the water surface and 10 m^2 of type III S. molesta plants on soils. Each plot, except a control plot, was treated with 20 L one of the following experimental solutions by Solo 433 motorized backpack sprayer: 0.5% 4-hydroxybenzoic acid, 0.5% 4-hydroxybenzoic acid mixed with 0.25% DAWN® dish soap, 0.5% 4-hydroxybenzoic acid and 0.25% 3,4-dihydroxybenzoic acid, 0.5% 4-hydroxybenzoic acid and 0.25% 3,4-dihydroxybenzoic acid with 0.25% DAWN® dish soap, and 0.25% DAWN® dish soap. Each test condition had three replicates. 12 days after the treatments, plant growth status was photographed and the plant survival rate was measured by three 1×1 m random sample plots for floating plants on the water surface and two samples in 1×1 m random sample plots for plants on soils. Pairwise comparisons for all treatments (including Control) for living biomass were made using Tukey test at alpha=0.05, which was done using SAS (SAS 9.4).

leaf vegetables = conditions: in vivo; cited from earlier work
[3] = system: F. oxysporum, F. nivale, Aspergillus flavus, and A. fumigatus; conditions: cited from earlier work
[4] = system: rhizosphere bacterial population; conditions: cited from earlier work
[5] = system: rhizosphere fungal populations; conditions: cited from earlier work
[6] = system: Fusarium oxysporum f. sp. niveum; conditions: cited from earlier work
Enterbacter ludwigii = conditions: cited from earlier work
[7] = system: anthracnose pathogen and N-fixing bacteria in peanut; conditions: high concentrations; cited from earlier work
[8] = 2% solution, 10 mL spray on nine plants (types I, II, III), six weeks
[9] = listed as 4-hydroxybenzoic acid

O=C(O)c1ccc(O)c(O)c1 [3,4-dihydroxybenzoic acid]
A. caroliniana eliminated (Azolla caroliniana): 100% | mutation induction in S. molesta (S. molesta [1]; 0.25, 0.5, and 1%): induced small leaf mutations | induced new growth type (S. molesta [1]; 0.5% or 1%, six weeks of observation): the new plants remained as type I | survival and damage of S. molesta plants (S. molesta [1]; [8]): killed all of the plants and no new growth was observed | effect on root mass of king protea explants (king protea explants; 100 mg/L): increase the root mass | effect on growth of king protea explants (king protea explants; 500 mg/L): inhibit growth | impacts on root growth of king protea explants (patent's reading of the cited data) (king protea explants): no significant impacts

O=C(O)c1ccc(O)cc1 [4-Hydroxybenzoic acid]
A. caroliniana eliminated (Azolla caroliniana): 100% | survival and damage of S. molesta plants (S. molesta [1]; 0.125% or lower concentrations, six weeks): no significant damage | survival and damage of S. molesta plants (S. molesta [1]; 0.25% solution, 10 mL spray on nine plants, first week): killed all floating leaves of the small plants (type I and II) and partially injured floating leaves of the type III plants | induced new growth type (S. molesta [1]; 0.25% solution, six weeks): Seven plants developed cupped floating leaves (type II) | survival and damage of S. molesta plants (S. molesta [1]; 0.5% solution, 10 mL spray on nine plants): killed almost all floating leaves of the nine treated plant within a week | induced new growth type (S. molesta [1]; 0.5% solution, six weeks): all other newly emerged plants from axillary buds remained as type I | survival and damage of S. molesta plants (S. molesta [1]; 1% solution, 10 mL spray on nine plants (types I, II, III)): all six type I or II plants were dead without new growth within two days of the treatment | induced new growth type (S. molesta [1]; 1% solution, end of second week): three small plants (type I) emerged from the axillary buds of the type III plants | survival and damage of S. molesta plants (S. molesta [1]; [8]): died and showed no new growth | inhibitory activity on the growth of taro (taro): weaker inhibitory activity than benzoic acid | activity on growth and photosynthetic rate in tobacco (tobacco): some inhibitory activity | induced new growth type (S. molesta [2]): primarily type I and II | % of Living Biomass/Total Biomass (mean ± s.d.), Type I and II Plants on Water Surface (S. molesta [2]): 34.7% | % of Living Biomass/Total Biomass (mean ± s.d.), Type III Plants on Soils (S. molesta [2]): 14.3% | % of Living Biomass/Total Biomass (mean ± s.d.), Type I and II Plants on Water Surface (S. molesta [2]; [9]): 34.7% | % of Living Biomass/Total Biomass (mean ± s.d.), Type III Plants on Soils (S. molesta [2]; [9]): 14.3% | inhibitory activity in growth of some leaf vegetables (leaf vegetables): weaker than adipic acid | hypha growth and spore proliferation [3]: promote the hypha growth and spore proliferation | Shannon-Wiener index, rhizosphere bacterial population [4]: decrease | Shannon-Wiener index, rhizosphere fungal populations [5]: increase | mycelial growth [6]: stimulate the mycelial growth | growth of Enterbacter ludwigii (Enterbacter ludwigii): stimulated the growth | effect on anthracnose pathogen and N-fixing bacteria [7]: inhibited
